Entries after “also recorded” stand apart in the source; their conditions may differ.
Legend:
[1] = tested on: human metastatic prostate cancer PC-3M cells; test: Orthotopic PC-3M prostate cancer model in SCID mice; format: in vivo
From the text: PC-3 & PC-3M (human prostate carcinoma). The PC-3 human prostate cancer cell line was originally obtained from the American Type Culture Collection (Rockville, Md.). The PC-3M cell line was kindly provided by Dr. Issac (MD Anderson Cancer Center). This cell variant was derived from a liver metastasis produced by the parental PC-3 cells growing in the spleen of a nude mouse [Pettaway C A, Pathak S, Greene G, et al. Selection of highly metastatic variants of different human prostate carcinomas utilizing orthotopic implantation in nude mice.
Male SCID mice were housed in laminar flow under specific pathogen-free conditions and used at 8-9 weeks of age. Animals were maintained in the LDI facilities approved by the Laboratory Animal Care in accordance with current Canadian regulations and standards for the use of animals for research.
Mice were anesthesized with isofluorane given by inhalation and placed in a supine position. […] A low midline incision was made and the prostate was exposed. Fifty microliters of HBSS containing 1×10^6 cells was injected into a lateral lobe of the prostate. The wound was closed with surgical metal clips in two layers, the muscle layer first and then the skin layer using stainless steel clips (autoclips: 9 mm; Clay Adams Inc., Parsippany, N.J.). […] Control groups received the vehicle alone. Taxol™ was given either ip or iv as indicated.
Primary tumors in the prostate were excised, measured, and weighed. When applicable, immunohistochemistry and H&E staining were conducted on one part of the tumor, fixed in formalin and embedded in paraffin or OCT compound (Miles Inc., Elkhart, Ind.); the later was rapidly frozen in liquid nitrogen, and stored at −70° C. Macroscopically enlarged regional lymph nodes were harvested and the presence of metastatic disease was confirmed by histology.
The in vivo data was analyzed using the Mann-Whitney U test.

[2] = tested on: human pancreatic tumor cells; test: Cell proliferation, [3H]thymidine incorporation, human pancreatic tumor cells; format: cell-based; settings: 6.5 μM, 18 h
[3] = tested on: PC-3 (human prostate carcinoma); test: Prostate carcinoma model PC-3 in SCID mice
From the text: • Species and strain: Mouse (Mus musculus); female SCID (MDA231 and OVCAR3), male SCID (PC-3, HCT116); male CD57 B16 mice (BL16-BL6) • Age: 6-8 weeks old. • Supplier: Charles River Laboratories, Inc., St-Constant, Quebec, Canada. • Acclimation: Mice were acclimated to laboratory conditions for approximately 1 week prior to tumor cell inoculation. • Identification: Mice were identified by ear punch combination. • Housing: Mice were housed in groups of 3-5 in a designated animal facility with a temperature of 22° C., a relative humidity of 40-50%, and a 12 hr light/dark cycle.
PC-3 (human prostate carcinoma). These cells were originally received from the ATCC. Early passage cells (tested free of mycoplasma) were grown to 60% confluence in DMEM medium supplemented with 10% fetal bovine serum, and antibiotics. Cell harvesting was performed using trypsin-EDTA solution.
Exponentially growing cells were harvested using trypsin-EDTA solution. […] Cell viability was confirmed by trypan blue staining. […] One to 2 millions cells suspended in 0.1 mL phosphate buffer solution was implanted into the mammary fat pad (MCF7) or subcutaneously into the axillary region of the right flank of recipient SCID mice. All animals were inoculated at the same site.
Mice were subjected to general examination on daily basis. […] Control groups received the vehicle alone. Chemotherapy drugs were also given by intraperitoneal route according to the schedule described below.
Primary tumor growth was monitored every second to fourth day using calipers. Relative tumor volume (cm^3) was determined by the formula:
Body weights were monitored every third to fifth day. Animals experiencing signs of discomfort were sacrificed immediately (in some cases they were replaced by spared mice). […] Mice were sacrificed by cervical dislocation and immediately subjected to full autopsy.

[4] = tested on: Panc-1 human pancreatic carcinoma cells; test: Human pancreatic cancer model Panc-1 in SCID mice; format: in vivo; settings: 30 and 60 mg/kg i.p.
From the text: Human pancreatic carcinoma cells (“Panc-1 cells”) were originally received from the ATCC (American Type Culture Collection).
Only those cells with >95% viability were used for in-vivo studies.
Once tumors reached a size of approximately 0.7 cm^3, they were removed under sterile condition, sliced into small pieces under a stereo-microscope. Each tissue piece was then reinoculated subcutaneously. Only pieces of approximately the same size and with no signs of necrosis were used.
At the end of the experiment, mice were sacrificed by cervical dislocation and full autopsies were conducted. A picture was taken of tumors from randomly selected mice. The tumors were then fixed in formalin for pathology examination.

[5] = tested on: OVCAR-3 (human ovarian carcinoma); test: Ovarian carcinoma model OVCAR-3 in SCID mice; format: in vivo; settings: QC-56 60 mg/kg/ip
From the text: • Species and strain: […] OVCAR-3 (human ovarian carcinoma). […] Control groups received the vehicle alone.

SKMEL-V+ cells = test: Melanoma efficacy study of QC-199, SKMEL-V+ cells s.c. in Scid mice; format: in vivo, human; settings: for reduction of tumor volume vs vehicle: 2 cycles
Protocol: BD PharMingen, San Diego, Calif.). Cryostat sections were used for CD31 staining. […] Sections were rehydrated in PBS and then blocked with 5% normal goat serum for 1 h. The sections were then incubated overnight at 4° C. with CD31 antibody diluted 1:25 in 3% BSA-PBS. […] Sections were counterstained with Harris' hematoxylin and mounted. Slides were analyzed by conventional light microscopy and photographed using color slides (Eastman Kodak, Rochester, N.Y.). Balb/c Scid mice, 6 week-old, were obtained from Charles River Laboratories, St. Zotique, PQ, Canada. The mice weighed 18-22 g. The experiments were approved by the Animal Care Committee, McGill University, Montreal. The animals were housed in individual cages (4 per cage) and were fed standard rodent chow and water ad libitum. […] When the tumors become palpable (size of a rice), mice weights were measured with a digital balance accurate to 0.05 g. […] For the infusion, mice were anesthetized using isoflurane-based system ([…] COMPACT NRB, 3975-0800-000). For the infusion, a mini pump (NE-1800, New Era Pump Systems, Inc.) was used to infuse the compound via the tail vein during a 2 h period. […] At experiment termination, mice were anesthetized with isoflurane and sacrificed by cervical dislocation. Tumors were dissected and tumor weights were measured using a digital balance.

[6] = QC-56 30 mg/kg intraperitoneally daily for 12 days, Taxol 10 mg/kg i.p. 3 cycles
[7] = QC-56 30 mg/kg intravenously daily for 12 days, Taxol 10 mg/kg i.p. 3 cycles

Compound: Brc1ccc(CCC2(Cn3ccnc3)OCCO2)cc1.Cl [QC-56, 1-((2-(2-(4-Bromophenyl)ethyl)-1,3-dioxolan-2-yl)methyl)-1H-imidazole hydrochloride]
- inhibition of tumor growth [1, 6]: 34%
- reduction in microscopic lymph node metastases [1, 6]: 59%
- inhibition of tumor growth [1, 7]: 58%
- reduction in microscopic lymph node metastases [1, 7]: 76%
- reduction in microscopic lymph node metastases ([1]; QC-56 40 mg/kg daily for 24 days, Taxol 10 mg/kg, 4 cycles): 48%
- inhibition of tumor growth compared to untreated mice ([1]; QC-56 40 mg/kg daily for 24 days, Taxol 10 mg/kg, 4 cycles, 3 administrations per cycle): 35%
- effect of hHO-1 transfection on 3H-thymidine incorporation ([2]; hHO-1-transfected human pancreatic tumor cells): significantly attenuated
- 3H-thymidine incorporation vs untreated cells ([2]; non-transfected human pancreatic tumor cells, hydrochloride): significantly attenuated; also recorded: marked reduction
- Body Weights (g) d8 (mean + SE) ([3]; PC-3 mice, treatment day 8): 22.30 ± 7.88 g
- Body Weights (g) d42 (mean + SE) ([3]; PC-3 mice, treatment day 42): 18.10 ± 7.38 g
- inhibition of tumor growth compared to vehicle alone ([3]; QC-56 60 mg/kg/ip, Taxol 10 mg/kg): approximately 25%
- anti-tumor activity [4]: not in the pancreatic cancer model Panc-1
- reduction of tumor growth [5]: approximately 15%
- tumor size on the day of sacrifice ([5]; CDDP 3 mg/kg): 1.12±0.08 cm^3

Compound: Brc1ccc(CCCCn2ccnc2)cc1.Cl [QC-199, 1-[4-(4-bromophenyl)butyl]-1H-imidazole hydrochloride]
- reduction of tumor volume vs vehicle (SKMEL-V+ cells; 30 mg/kg i.v. infusion, d1, 3, 5 per cycle): 30%
- reduction of tumor volume vs vehicle (SKMEL-V+ cells; 60 mg/kg i.v. infusion, d1, 3, 5 per cycle, p less than 0.05): 52%
- reduction of tumor volume vs vehicle (SKMEL-V+ cells; 200 mg/kg i.v. infusion, d1, 5 per cycle, p less than 0.01): 69%
- reduction of tumor volume vs vehicle (SKMEL-V+ cells; 1000 mg/kg i.v. infusion, d1, 5 per cycle, p less than 0.01): 78%
- vascularization of dissected tumors (H&E staining) (SKMEL-V+ cells; QC-199 30-1000 mg/kg): dose dependent reduction in vascularization

— patent US20140155445A1, “Compounds and Methods for Treating Cancer and Diseases of the Central Nervous System” (Osta Biotechnologies Inc., priority 2007, published 2014)
